# Values joined by “and” are separate entries in the source; they are usually repeats but may differ in a detail not shown here. Identical values can stand only once. Like-named read-outs stand apart in the source and are kept apart here.
# Tests used:
# [1] = tested on: ATCC strain 43300 Staphylococcus aureus
# Experimental: Additional antibiotic was added every 24 hours.
# USP<51> Antimicrobial Effectiveness protocol was used as the template experimental paradigm. […] All concentrations were plated out to the 10^−7 dilutionsto ascertain cfu/ml. […] Additional antibiotic was added at the initial concentration every 24 hours.
# ATCC strain 43300 Staphylococcus aureus was streaked out for isolations. An isolated colony was chosen, streaked again and incubated. Isolate was chosen and then diluted to a McFarland standard of one. The estimated value was then taken to inoculate tubes containing growth media and 12, 30 or 60 μg/ml oxacillin with approximately 10^5 cfu/ml. These tubes were incubated and plated for counting cfu.
# Material was calculated on a 10 ml volume. Sterile oxacillin was added to each experimental condition to a final concentration of 12, 30 or 60 μg/ml antibiotic.
# All tubes were then inoculated with a dilution of the selected ATCC strain 43300 Staphylococcus aureus clone giving a final level of colony forming units of 3.3×10^5/ml (log=5.52). The tubes were incubated at 25° C. and mixed periodically. Antibiotic was re-inoculated every 24 hours at the initial concentration to maintain pressure on the organism. Plating was done at 24, 48, 72, and 120 hours. Each condition was plated by diluting 1 ml of growth material into 9 ml of MLB diluent broth. […] This mixture was serial diluted down to 10^−7 with 1 ml placed in triplicate in a sterile petri dish at each dilution point. 20 mls of TSA was added to each dilution, swirled and allowed to solidify. All dilutions were placed in a 35° C. incubator for 24 to 72 hours. Bacterial colonies on each plate were counted and the average taken then changed into log format. Any cfu/ml observed greater than 3.3×10^5 (log=5.5) were recorded as >3.3×10^5.
# [2] = tested on: ATCC strain 43300 Staphylococcus aureus; test: Survival of MRSA in MSM alone, 24 and 48 hours (USP<51> Antimicrobial Effectiveness template); settings: 5-16% MSM alone, 24 or 48 hour time point
# Experimental: USP<51> Antimicrobial Effectiveness protocol was used as the template experimental paradigm. […] All concentrations were plated out to the 10^−7 dilutionsto ascertain cfu/ml.
# Material was calculated on a 10 ml volume.
# All tubes were inoculated with a dilution of MRSA giving a final level of colony forming units of 2.0×10^5/ml (Log=5.23). The tubes were incubated at 25° C. and mixed periodically. Plating was done at 24 and 48 hours. Each condition was plated by diluting 1 ml of growth material into 9 ml of MLB diluent broth. This mixture was serial diluted down to 10^−7, and 1 ml placed in a sterile petri dish at each dilution point. 20 mls of TSA was added to each dilution, swirled and allowed to solidify. All dilutions were placed in a 35° C. incubator for 24 hours. Bacterial colonies on each plate were counted and colony counts changed into log format. A positive and negative control was ascertained.
# [3] = tested on: ATCC strain 43300 Staphylococcus aureus; assay type: cell-based
# [4] = 12% MSM, 12 μg/ml oxacillin, 48 hours
# [5] = 12% MSM, 30 μg/ml oxacillin, 24 hours
# [6] = 12% MSM, 60 μg/ml oxacillin, 24 hours
# [7] = 13% MSM, 12 μg/ml oxacillin, 24 hours
# [8] = 13% MSM, 12 μg/ml oxacillin, 48 hours
# [9] = 13% MSM, 30 μg/ml oxacillin, 24 hours
# [10] = 13% MSM, 60 μg/ml oxacillin, 24 hours
# [11] = 14% MSM, 12 μg/ml oxacillin, 24 hours
# [12] = 14% MSM, 12 μg/ml oxacillin, 48 hours
# [13] = 14% MSM, 12 μg/ml oxacillin, 72 hours
# [14] = 14% MSM, 30 μg/ml oxacillin, 24 hours
# [15] = 14% MSM, 60 μg/ml oxacillin, 24 hours
# [16] = 15% MSM, 12 μg/ml oxacillin, 24 hours
# [17] = 15% MSM, 12 μg/ml oxacillin, 48 hours
# [18] = 15% MSM, 30 μg/ml oxacillin, 24 hours
# [19] = 15% MSM, 60 μg/ml oxacillin, 24 hours
# [20] = 16% MSM, 12 μg/ml oxacillin, 24 hours
# [21] = 16% MSM, 12 μg/ml oxacillin, 48 hours
# [22] = 16% MSM, 30 μg/ml oxacillin, 24 hours
# [23] = 16% MSM, 60 μg/ml oxacillin, 24 hours
smiles,measurement,setting,value
"CS(C)(=O)=O [MSM, methylsulfonylmethane]",survival,"[1]; 12% MSM, 12 μg/ml oxacillin, 24 hours",7.0 × 10^3 cfu/ml and 7.3 × 10^3 cfu/ml
same,Average Log,[1]; [4],2.8 Log
same,survival,[1]; [4],3.6 × 10^2 cfu/ml and 4.0 × 10^2 cfu/ml and 4.2 × 10^2 cfu/ml
same,Average Log,"[1]; 12% MSM, 12 μg/ml oxacillin, 72 hours",3.1 Log
same,Average Log,[1]; [5],3.59 Log
same,survival,[1]; [5],3.9 × 10^3 cfu/ml
same,Average Log,"[1]; 12% MSM, 30 μg/ml oxacillin, 48 hours",2.6 Log
same,Average Log,"[1]; 12% MSM, 30 μg/ml oxacillin, 72 hours",2.6 Log
same,Average Log,[1]; [6],2.86 Log
same,survival,[1]; [6],7.3 × 10^2 cfu/ml and 7.1 × 10^2 cfu/ml and 7.5 × 10^2 cfu/ml
same,Average Log,"[1]; 12% MSM, 60 μg/ml oxacillin, 48 hours",2.0 Log
same,Average Log,"[1]; 12% MSM, 60 μg/ml oxacillin, 72 hours",2.4 Log
same,log reduction in the number of cfu/ml,"[1]; 12%-16% MSM, 12 μg/ml oxacillin, 72 hours",1 log
same,Average Log,[1]; [7],3.95 Log
same,survival,[1]; [7],9.0 × 10^3 cfu/ml and 8.7 × 10^3 cfu/ml and 9.2 × 10^3 cfu/ml
same,Average Log,[1]; [8],2.8 Log
same,survival,[1]; [8],6.8 × 10^2 cfu/ml and 5.8 × 10^2 cfu/ml
same,Average Log,"[1]; 13% MSM, 12 μg/ml oxacillin, 72 hours",2.7 Log
same,Average Log,[1]; [9],3.62 Log
same,survival,[1]; [9],4.4 × 10^3 cfu/ml and 4.1 × 10^3 cfu/ml and 4.2 × 10^3 cfu/ml
same,Average Log,"[1]; 13% MSM, 30 μg/ml oxacillin, 48 hours",2.5 Log
same,Average Log,"[1]; 13% MSM, 30 μg/ml oxacillin, 72 hours",1.8 Log
same,Average Log,[1]; [10],2.80 Log
same,survival,[1]; [10],6.3 × 10^2 cfu/ml and 6.0 × 10^2 cfu/ml
same,Average Log,"[1]; 13% MSM, 60 μg/ml oxacillin, 48 hours",1.7 Log
same,Average Log,"[1]; 13% MSM, 60 μg/ml oxacillin, 72 hours",1 Log
same,Average Log,[1]; [11],4.00 Log
same,survival,[1]; [11],1.00 × 10^4 cfu/ml and 1.02 × 10^4 cfu/ml and 1.01 × 10^4 cfu/ml
same,Average Log,[1]; [12],1.0 Log
same,log reduction in the number of cfu/ml,[1]; [12],4.5 log
same,survival,[1]; [12],1.0 × 10^1 cfu/ml and 1.2 × 10^1 cfu/ml and 1.1 × 10^1 cfu/ml
same,Average Log,[1]; [13],2.0 Log
same,log reduction in the number of cfu/ml,[1]; [13],4.5 log
same,Average Log,[1]; [14],3.78 Log
same,survival,[1]; [14],6.1 × 10^3 cfu/ml and 6.0 × 10^3 cfu/ml
same,Average Log,"[1]; 14% MSM, 30 μg/ml oxacillin, 48 hours",2.5 Log
same,Average Log,"[1]; 14% MSM, 30 μg/ml oxacillin, 72 hours",2.2 Log
same,Average Log,[1]; [15],2.03 Log
same,log reduction in the number of cfu/ml,[1]; [15],3.5 log
same,survival,[1]; [15],1.8 × 10^2 cfu/ml and 1.7 × 10^2 cfu/ml
same,Average Log,"[1]; 14% MSM, 60 μg/ml oxacillin, 48 hours",2.2 Log
same,Average Log,"[1]; 14% MSM, 60 μg/ml oxacillin, 72 hours",1.5 Log
same,Average Log,[1]; [16],4.11 Log
same,survival,[1]; [16],1.35 × 10^4 cfu/ml and 1.30 × 10^4 cfu/ml and 1.29 × 10^4 cfu/ml
same,Average Log,[1]; [17],3.7 Log
same,survival,[1]; [17],5.0 × 10^3 cfu/ml and 4.5 × 10^3 cfu/ml and 4.6 × 10^3 cfu/ml
same,Average Log,"[1]; 15% MSM, 12 μg/ml oxacillin, 72 hours",2.3 Log
same,Average Log,[1]; [18],3.94 Log
same,survival,[1]; [18],8.7 × 10^3 cfu/ml and 8.9 × 10^3 cfu/ml and 8.8 × 10^3 cfu/ml
same,Average Log,"[1]; 15% MSM, 30 μg/ml oxacillin, 48 hours",2.8 Log
same,Average Log,"[1]; 15% MSM, 30 μg/ml oxacillin, 72 hours",2.4 Log
same,Average Log,[1]; [19],3.81 Log
same,survival,[1]; [19],6.6 × 10^3 cfu/ml and 6.2 × 10^3 cfu/ml and 6.4 × 10^3 cfu/ml
same,Average Log,"[1]; 15% MSM, 60 μg/ml oxacillin, 48 hours",2.1 Log
same,Average Log,[1]; [20],3.88 Log
same,survival,[1]; [20],7.6 × 10^3 cfu/ml and 7.4 × 10^3 cfu/ml
same,Average Log,[1]; [21],3.7 Log
same,survival,[1]; [21],4.2 × 10^3 cfu/ml and 5.0 × 10^3 cfu/ml and 4.3 × 10^3 cfu/ml
same,Average Log,"[1]; 16% MSM, 12 μg/ml oxacillin, 72 hours",2.1 Log
same,Average Log,[1]; [22],3.91 Log
same,survival,[1]; [22],8.3 × 10^3 cfu/ml and 8.0 × 10^3 cfu/ml
same,Average Log,"[1]; 16% MSM, 30 μg/ml oxacillin, 48 hours",2.6 Log
same,Average Log,"[1]; 16% MSM, 30 μg/ml oxacillin, 72 hours",1.9 Log
same,Average Log,[1]; [23],3.83 Log
same,survival,[1]; [23],6.9 × 10^3 cfu/ml
same,Average Log,"[1]; 16% MSM, 60 μg/ml oxacillin, 48 hours",1.9 Log
same,Average Log,"[1]; 16% MSM, 60 μg/ml oxacillin, 72 hours",1.8 Log
same,effect on survival,[2],none of the concentrations of MSM tested had any effect on the survival
same,recovery of MRSA after enrichment,"[3]; 5% MSM, 60 μg/ml methicillin, 72 hours",true total kill
same,recovery of MRSA after enrichment,"[3]; 6% MSM, 12 μg/ml methicillin, 72 hours",true total kill
same,recovery of MRSA after enrichment,"[3]; 6% MSM, 60 μg/ml methicillin, 72 hours",true total kill
same,recovery of MRSA after enrichment,"[3]; 7% MSM, 12 μg/ml methicillin, 72 hours",true total kill
same,recovery of MRSA after enrichment,"[3]; 8% MSM, 12 μg/ml methicillin, 96 hours",true total kill
same,recovery of MRSA after enrichment,"[3]; 10% MSM, 30 μg/ml methicillin, 120 hours",true total kill
same,recovery of MRSA after enrichment,"[3]; 11% MSM, 30 μg/ml methicillin, 120 hours",true total kill
same,recovery of MRSA after enrichment,"[3]; 11% MSM, 60 μg/ml methicillin, 120 hours",true total kill
same,recovery of MRSA after enrichment,"[3]; 12% MSM, 30 μg/ml methicillin, 120 hours",true total kill
same,recovery of MRSA after enrichment,"[3]; 12% MSM, 60 μg/ml methicillin, 120 hours",true total kill
same,recovery of MRSA after enrichment,"[3]; 14% MSM, 60 μg/ml methicillin, 120 hours",true total kill
same,recovery of MRSA after enrichment,"[3]; 15% MSM, 60 μg/ml methicillin, 120 hours",true total kill
same,recovery of MRSA after enrichment,"[3]; 16% MSM, 30 μg/ml methicillin, 120 hours",true total kill
